In the NIST ThermoML archive (doi:10.1021/acs.jced.5b00613):

Conditions: Liquid, Vibrating tube method

CCCCCCCCCC [decane]
mass density [kg/m3]
Conditions | 100 kPa | 1000 kPa | 5000 kPa | 10000 kPa | 20000 kPa | 30000 kPa | 40000 kPa | 50000 kPa | 60000 kPa
278.15 K | 741.6 | 742.2 | 745 | 748.3 | 754.4 | 760.1 | 765.4 | 770.4 | 775.3
298.15 K | 726.7 | 727.4 | 730.5 | 734.2 | 740.9 | 747.2 | 753 | 758.4 | 763.7
323.15 K | 707.4 | 708.4 | 711.9 | 716.2 | 724 | 731.1 | 737.5 | 743.5 | 749.2
348.15 K | 687.6 | 688.6 | 692.8 | 697.7 | 706.7 | 714.6 | 721.8 | 728.4 | 734.6
373.15 K | 667.1 | 668.8 | 673.8 | 679.6 | 689.8 | 698.8 | 706.8 | 714.1 | 720.8
423.15 K | 624.8 | 627.2 | 634.5 | 642.4 | 655.8 | 667.1 | 677 | 685.9 | 693.8
463.15 K | – | 590.4 | 600.3 | 610.8 | 627.8 | 641.4 | 653.1 | 663.3 | 672.1

CCCCCCCCCCCC [dodecane]
mass density [kg/m3]
Conditions | 100 kPa | 1000 kPa | 5000 kPa | 10000 kPa | 20000 kPa | 30000 kPa | 40000 kPa | 50000 kPa | 60000 kPa
278.15 K | 759.2 | 760.5 | 763.1 | 766.2 | 771.9 | 777.3 | 782.3 | 787.1 | 791.7
298.15 K | 745.6 | 746.2 | 749 | 752.4 | 758.7 | 764.7 | 770.1 | 775.3 | 780.2
323.15 K | 727.2 | 728.2 | 731.4 | 735.3 | 742.6 | 749.2 | 755.2 | 760.9 | 766.3
348.15 K | 708.7 | 709.6 | 713.4 | 717.8 | 726.1 | 733.5 | 740.2 | 746.4 | 752.3
373.15 K | – | 690.8 | 695.2 | 700.4 | 709.8 | 718.1 | 725.6 | 732.5 | 738.9
423.15 K | – | 652.6 | 658.7 | 665.6 | 677.6 | 688 | 697 | 705.3 | 712.8
463.15 K | – | – | 627.9 | 636.9 | 651.8 | 664.2 | 674.8 | 684.1 | 692.6

CCCCCCCCCCCCCCCC [hexadecane]
mass density [kg/m3]
Conditions | 100 kPa | 1000 kPa | 5000 kPa | 10000 kPa | 20000 kPa | 30000 kPa | 40000 kPa | 50000 kPa | 60000 kPa
298.15 K | 770.5 | 771.1 | 773.6 | 776.9 | 782.6 | 788.1 | – | – | –
323.15 K | 753.1 | 753.9 | 756.8 | 760.4 | 766.9 | 772.9 | 778.5 | 783.8 | 788.7
348.15 K | 735.6 | 736.5 | 739.8 | 743.8 | 751.1 | 757.8 | 763.9 | 769.7 | 775.1
373.15 K | 717.8 | 719.4 | 723.2 | 727.7 | 735.9 | 743.4 | 750.3 | 756.5 | 762.4
423.15 K | 680.8 | 684.1 | 689.2 | 695.1 | 705.5 | 714.7 | 722.9 | 730.4 | 737.2
463.15 K | 651.6 | 654.5 | 661 | 668.5 | 681.2 | 692 | 701.4 | 709.8 | 717.5

CCCCCC [hexane]
mass density [kg/m3]
Conditions | 100 kPa | 1000 kPa | 5000 kPa | 10000 kPa | 20000 kPa | 30000 kPa | 40000 kPa | 50000 kPa | 60000 kPa
278.15 K | 673.3 | 673.9 | 677.6 | 681.8 | 689.6 | 696.8 | 703.2 | 709.2 | 715
298.15 K | 656.1 | 655.9 | 660.1 | 665.1 | 673.9 | 681.9 | 689 | 695.5 | 701.7
323.15 K | 631.7 | 633.1 | 638.2 | 644.2 | 654.7 | 663.9 | 671.9 | 679.3 | 686.1
348.15 K | – | 608.5 | 614.9 | 622.1 | 634.6 | 645.2 | 654.4 | 662.6 | 670.2
373.15 K | – | 582.6 | 591 | 600 | 614.8 | 627 | 637.4 | 646.6 | 654.9
423.15 K | – | 521.2 | 536.9 | 551.5 | 573.2 | 589.7 | 603.2 | 614.6 | 624.8
463.15 K | – | – | 484.2 | 508.5 | 538.9 | 559.8 | 575.9 | 589.3 | 600.7
